For series [1], the system named is Staphylococcus aureus. Nature of the series: Antimicrobial activity against Staphylococcus aureus ATCC 25923 assessed as inhibition of visible growth measured after 20 to 24 hrs incubation by CLSI method. In kind it is functional. The following applies: time 20-24 hrs.
Series [2] concerns Staphylococcus aureus. Nature of the series: Antimicrobial activity against antibiotic-resistant Staphylococcus aureus ATCC BAA-2312 assessed as inhibition of visible growth measured after 20 to 24 hrs incubation by CLSI method. In kind it is functional. Conditions: time 20-24 hrs.
Series [3] has as its system Staphylococcus aureus. Nature of the series: Antimicrobial activity against antibiotic-resistant Staphylococcus aureus ATCC 33591 assessed as inhibition of visible growth measured after 20 to 24 hrs incubation by CLSI method. In kind it is functional. Conditions: time 20-24 hrs.
Series [4] has as its system Staphylococcus aureus. Nature of the series: Antimicrobial activity against antibiotic-resistant Staphylococcus aureus ATCC 33592 assessed as inhibition of visible growth measured after 20 to 24 hrs incubation by CLSI method. In kind it is functional. The following applies: time 20-24 hrs.
The subject of series [5] is Staphylococcus aureus. Put plainly: Antimicrobial activity against antibiotic-resistant Staphylococcus aureus ATCC 700699 assessed as inhibition of visible growth measured after 20 to 24 hrs incubation by CLSI method. In kind it is functional. Conditions: time 20-24 hrs.
Series [6] concerns Staphylococcus epidermidis. Nature of the series: Antimicrobial activity against antibiotic-resistant Staphylococcus epidermidis ATCC 700296 assessed as inhibition of visible growth measured after 20 to 24 hrs incubation by CLSI method. In kind it is functional. Conditions: time 20-24 hrs.
Series [7] deals with Enterococcus faecalis. Put plainly: Antimicrobial activity against antibiotic-susceptible Enterococcus faecalis ATCC 29212 assessed as inhibition of visible growth measured after 20 to 24 hrs incubation by CLSI method. Format: functional. The following applies: time 20-24 hrs.
Series [8] concerns Enterococcus faecalis. Put plainly: Antimicrobial activity against antibiotic-resistant Enterococcus faecalis ATCC 51299 assessed as inhibition of visible growth measured after 20 to 24 hrs incubation by CLSI method. Format: functional. Conditions: time 20-24 hrs.
Another series has as its system Enterococcus faecium. Nature of the series: Antimicrobial activity against antibiotic-resistant Enterococcus faecium ATCC 700221 assessed as inhibition of visible growth measured after 20 to 24 hrs incubation by CLSI method. Format: functional. The following applies: time 20-24 hrs.
A further series deals with Bacillus subtilis. Put plainly: Antimicrobial activity against antibiotic-resistant Bacillus subtilis ATCC 6623 assessed as inhibition of visible growth measured after 20 to 24 hrs incubation by CLSI method. Format: functional. The following applies: time 20-24 hrs.
In a further series the test system is HEK293. Put plainly: Cytotoxicity against human HEK293 cells assessed as cell viability measured after 24 hrs by resazurin assay. In kind it is toxicity, cell-based. For orientation: Alamar Blue is a resazurin reagent that responds to reducing activity.
In series [9] the test system is Staphylococcus aureus. Put plainly: In vivo antimicrobial activity against Staphylococcus aureus USA300 infected in Caenorhabditis elegans AU37 nematodes assessed as viability of nematodes incubated for 5 days by susceptibility test. In kind it is functional. The following applies: USA300, 120 h, time 5 day.
The test system of series [10] is Staphylococcus aureus. Nature of the series: In vivo antimicrobial activity against Staphylococcus aureus Newman infected in Caenorhabditis elegans AU37 nematodes assessed as viability of nematodes incubated for 5 days by susceptibility test. In kind it is functional. Conditions: 120 h, time 5 day.
Series [11] relates to Staphylococcus aureus. Put plainly: In vivo antimicrobial activity against Staphylococcus aureus UAMS-1 infected in Caenorhabditis elegans AU37 nematodes assessed as viability of nematodes incubated for 5 days by susceptibility test. Format: functional. Conditions: UAMS-1, 120 h, time 5 day.
The test system of series [12] is Staphylococcus aureus. Nature of the series: Antimicrobial activity against Staphylococcus aureus ATCC 25923 assessed as eradication of biofilm measured after 24 hrs incubation by Calgary method. Format: functional.
Series [13] has as its system Enterococcus faecalis. Put plainly: Antimicrobial activity against antibiotic-susceptible Enterococcus faecalis ATCC 29212 assessed as eradication of biofilm measured after 24 hrs incubation by Calgary method. Format: functional.
The subject of the next series is Cell membrane. Nature of the series: Induction of membrane permeability in Staphylococcus aureus ATCC 700699 assessed as increase in fluorescence intensity at 4 times of MIC incubated for 15 mins measured for 1 hr by propidium iodide/real time fluorescence based flow cytometry Rvb = 3.5). The following applies: time 75.0 min. For orientation: A flow cytometer gives signals particle by particle.

Values after ≈ are worked out from the molar mass of the structure shown.

Three compounds from ChEMBL document CHEMBL5365500, “Development and Antibacterial Properties of 4-[4-(Anilinomethyl)-3-phenylpyrazol-1-yl]benzoic Acid Derivatives as Fatty Acid Biosynthesis Inhibitors” (J Med Chem, 2023) can be followed below.

As a reminder, the MIC is the lowest concentration that inhibits growth of the organism. The term IC50 denotes the concentration that gives 50% inhibition.

For `O=C(O)c1ccc(-n2cc(CNc3ccc(Br)c(Cl)c3)c(-c3ccc(F)cc3)n2)cc1`, the MIC in the series with Staphylococcus aureus [1] came out at 1 µg/mL (≈ 2 µM); with Staphylococcus aureus [2], 1 µg/mL (≈ 2 µM); with Staphylococcus aureus [3], 1 µg/mL (≈ 2 µM); in the series on Staphylococcus aureus [4] it was 1 µg/mL (≈ 2 µM); in the series with Staphylococcus aureus [5], 2 µg/mL (≈ 3.99 µM); in series [6] it was 4 µg/mL (≈ 7.99 µM). The MIC was determined as 8 µg/mL (≈ 16 µM) in the series with Enterococcus faecalis [7]; 8 µg/mL (≈ 16 µM) in the series with Enterococcus faecalis [8]; 4 µg/mL (≈ 7.99 µM) with Enterococcus faecium; 0.5 µg/mL (≈ 0.998 µM) in the series with Bacillus subtilis; 2 µg/mL (≈ 3.99 µM) with Staphylococcus aureus [9]; 1 µg/mL (≈ 2 µM) in the series with Staphylococcus aureus [10]. Besides, the MIC in the series on Staphylococcus aureus [11] is 2 µg/mL (≈ 3.99 µM). Moreover, the IC50 with HEK293 was determined as 20 µg/mL (≈ 39.9 µM).

In the case of `CCCCCCCCCC(=O)N[C@@H](Cc1c[nH]c2ccccc12)C(=O)N[C@H](CC(N)=O)C(=O)N[C@@H](CC(=O)O)C(=O)N[C@@H]1C(=O)NCC(=O)N[C@@H](CCCN)C(=O)N[C@@H](CC(=O)O)C(=O)N[C@H](C)C(=O)N[C@@H](CC(=O)O)C(=O)NCC(=O)N[C@H](CO)C(=O)N[C@@H]([C@H](C)CC(=O)O)C(=O)N[C@@H](CC(=O)c2ccccc2N)C(=O)O[C@@H]1C`, the MIC in the series with Staphylococcus aureus [5] amounted to 8 µg/mL (≈ 4.94 µM); in the series with Enterococcus faecalis [7], 16 µg/mL (≈ 9.87 µM); in the series with Enterococcus faecalis [8] it was 16 µg/mL (≈ 9.87 µM); in the series with Enterococcus faecium, 16 µg/mL (≈ 9.87 µM); in the series with Staphylococcus aureus [9], 4 µg/mL (≈ 2.47 µM); in the series with Staphylococcus aureus [10] it was 4 µg/mL (≈ 2.47 µM). The MIC in the series with Staphylococcus aureus [11] worked out at 4 µg/mL (≈ 2.47 µM). Besides, the results for the MBEC with Staphylococcus aureus [12] and in the series on Enterococcus faecalis [13] were greater than 32 µg/mL and 16 µg/mL, respectively. Besides, the Activity in the series on Cell membrane came out at 7.02%.

With `O=C(O)c1ccc(-n2cc(CNc3cc(Cl)c(F)c(Cl)c3)c(-c3cccc(F)c3)n2)cc1`, the MIC stood at 1 µg/mL (≈ 2.11 µM) in the series with Staphylococcus aureus [1]; 0.5 µg/mL (≈ 1.05 µM) in the series on Staphylococcus aureus [2]; 0.5 µg/mL (≈ 1.05 µM) in the series with Staphylococcus aureus [3]; 1 µg/mL (≈ 2.11 µM) with Staphylococcus aureus [4]; 2 µg/mL (≈ 4.22 µM) in the series on Staphylococcus aureus [5]; 2 µg/mL (≈ 4.22 µM) in [6]. The MIC came out at 8 µg/mL (≈ 16.9 µM) in the series on Enterococcus faecalis [7]; 4 µg/mL (≈ 8.43 µM) in the series on Enterococcus faecalis [8]; 4 µg/mL (≈ 8.43 µM) with Enterococcus faecium; 1 µg/mL (≈ 2.11 µM) with Bacillus subtilis; 1 µg/mL (≈ 2.11 µM) with Staphylococcus aureus [9]; 1 µg/mL (≈ 2.11 µM) in the series with Staphylococcus aureus [10]. Moreover, the MIC in the series on Staphylococcus aureus [11] was 1 µg/mL (≈ 2.11 µM). The IC50 in the series with HEK293 is 20 µg/mL (≈ 42.2 µM).
